Patent publication US20110263693A1, “CELASTROL, GEDUNIN, AND DERIVATIVES THEREOF AS HSP90 INHIBITORS” (DANA-FARBER CANCER INSTITUTE, INC., priority 2006, published 2011)

What was measured:
[1] = tested on: HSP90 interaction with the cochaperone p23; experiment: HSP90 coimmunoprecipitation, p23; type: cell-based; details: SKBR-3 cells; celastrol 2.5 μM, 12 hr
Protocol: Geldanamycin and other HSP90 inhibitors are known to inhibit p23 association with HSP90 (Felts et al., 2003).
SKBR-3 cells were treated with vehicle, celastrol (2.5 μM, 12 hr), and PU24FCI (20 μM, 24 hr) (Vilenchik et al., 2004). Cells were lysed in 20 mM Tris HCl (pH 7.4), 25 mM NaCl, 2 mM DDT, 20 mM Na2MoO4, 0.1% NP-40, and […]. Lysates were incubated for 2 hr at 4° C., rotating, and then centrifuged at 13,000×g for 10 min. Protein (500 μg) was incubated with H9010 anti-HSP90 antibody for 1 hr at 4° C., rotating. Protein G agarose (30 μl; Upstate) was added to each sample, and samples were then incubated for 1 hr at 4° C., rotating. The beads were washed five times with 1 ml lysis buffer. Bound proteins were isolated by boiling in sample buffer. The levels of HSP90 and coimmunoprecipitating proteins were analyzed by western blot.

HSP90α = HSP90α (Homo sapiens, UniProt P07900); experiment: Geldanamycin competition assay (Cy3B-geldanamycin fluorescence polarization); type: binding; design: purchased Stressgen SPP776 / SPP-776; details: celastrol and gedunin at concentrations up to ~100 μM
Protocol: We first tested whether celastrol or gedunin could compete with Cy3B-geldanamycin for binding to the ATP-binding pocket of purified HSP90α by fluorescence polarization assay (Kim et al., 2004, Llauger-Bufi et al., 2003).
The geldanamycin competition assay was performed as described (He et al., 2006, Kim et al., 2004), except that Cy3B-geldanamycin rather than BODIPY-geldanamycin was used as described herein.
Measurements were taken in black 96-well microtiter plates (Coming #3650). The assay buffer (HFB) contained 20 mM HEPES (K) pH 7.3, 50 mM KCl, 5 mM MgCl2, 20 mM Na2MoO4, 0.01% NP40. Before each use, 0.1 mg/mL bovine gamma globulin (BGG) (Panvera Corporation, Madison, Wis.) and 2 mM DTT (Fisher Biotech, Fair Lawn, N.J.) were freshly added. GM-cy3B was synthesized as previously reported and was dissolved in DMSO to form 10 μM solutions. Cell lysates were prepared rupturing cellular membranes by freezing at −70° C. and dissolving the cellular extract in HFB with added protease and phosphotase inhibitors. Saturation curves were recorded in which GM-cy3B (3 nM) was treated with increasing amounts of cellular lysates.

celastrol signature = experiment: Connectivity Map query with the celastrol signature; type: cell-based, human; design: key to celastrol score (connectivity score): connectivity score, based on Kolmogorov-Smirnov statistic; details: for celastrol score (connectivity score): enrichment of the celastrol signature (1.25 μM celastrol at 6 h, LNCaP) in the compound's Connectivity Map profiles, 6 hr treatment; for celastrol rank: rank by celastrol score among 164 Connectivity Map compounds
Summary of the method: (§1)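 LNCaP cells received celastrol 1.25 μM or gedunin 20 μM for 6 h. Each signature was scored by Kolmogorov–Smirnov-based connectivity against 453 build01 profiles, mostly 6 h treatments of MCF7 cells.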

gedunin signature = experiment: Connectivity Map query with the gedunin signature; type: cell-based, human; design: key to gedunin score (connectivity score): connectivity score, based on Kolmogorov-Smirnov statistic; details: for gedunin score (connectivity score): enrichment of the gedunin signature (20 μM gedunin at 6 hours, LNCaP) in the compound's Connectivity Map profiles, 6 hr treatment; for connectivity scores for the gedunin signature: multiple instances, gedunin signature from LNCaP, 6 hours; for gedunin rank: rank by gedunin score among 164 Connectivity Map compounds
Summary of the method: as §1

[2] = tested on: celastrol and gedunin signatures; experiment: Connectivity Map query with the celastrol and gedunin signatures (joint); type: cell-based, human; details: Connectivity Map profiles, 6 hr
Text: Indeed, a major challenge in cell-based chemical biology and chemical genomics is the identification of compounds' targets (Gardner et al., 2003). We hypothesized that gene expression signatures could be used to identify compound action based on the similarity of such compound-induced signatures to signatures of existing drugs of known mechanism. We therefore employed a collection of gene expression profiles of drug-treated cell lines that was developed in our lab, termed the Connectivity Map (Lamb et al., 2006). This database comprises 453 genome-wide Affymetrix expression profiles derived from the treatment of human cell lines with 164 small molecules, primarily FDA-approved drugs. A 6 hr treatment time was chosen in an attempt to capture the primary, and potentially mechanistic, effects of the compounds rather than the downstream phenotypic consequences.
In order to use the Connectivity Map to gain insight into celastrol and gedunin function, we first defined a gene expression signature of celastrol and gedunin activity. The expression signatures of celastrol and gedunin were derived by expression profiling of RNA from LNCaP cells treated with celastrol (1.25 μM), gedunin (20 μM), and vehicle (DMSO) for 6 hr; signatures were defined using comparative marker selection to identify transcripts that distinguished between the compound- and vehicle-treated profiles by the signal-to-noise (SNR) metric. The enrichment of these signatures in the gene expression profiles of the Connectivity Map database was then assessed using a gene enrichment metric, the connectivity score, based on the Kolmogorov-Smirnov statistic (Lamb et al., 2003).
The celastrol and gedunin signatures were developed from RMA-processed microarray data from LNCaP cells treated with 1.25 μM celastrol or 20 μM gedunin for 6 hours. Comparative marker selection was used to identify markers that distinguished celastrol- and/or gedunin-treated samples from vehicle-treated samples by the median SNR (Golub et al., 1999). […]

in vitro = details: human
[3] = tested on: androgen signaling signature in LNCaP cells; experiment: GE-HTS androgen signaling signature assay / screen; details: LNCaP; for GE-HTS screen # replicates that score as the androgon deprived state (n = 3): KNN / GE-HTS screen # replicates that score as the androgon deprived state (n = 3): Naïve Bayes classifier (P < 0.05) / GE-HTS screen # replicates that score as the androgon deprived state (n = 3): unweighted summed score (P < 0.05) / GE-HTS screen # replicates that score as the androgon deprived state (n = 3): weighted summed score (P < 0.05): 1 nM R1881 plus compound ~20 μM, 24 hr, count of 3 replicates
LNCaP cells = experiment: Viability screen, luminescent ATP quantitation assay; details: 1 nM R1881 plus compound ~20 μM, 3 days

Structure (SMILES) | celastrol score (connectivity score) (celastrol signature) | gedunin score (connectivity score) (gedunin signature) | similarity of gene expression profile to the celastrol and gedunin signatures [2] | GE-HTS screen # replicates that score as the androgon deprived state (n = 3): KNN [3] | GE-HTS screen # replicates that score as the androgon deprived state (n = 3): Naïve Bayes classifier (P < 0.05) [3] | GE-HTS screen # replicates that score as the androgon deprived state (n = 3): unweighted summed score (P < 0.05) [3] | GE-HTS screen # replicates that score as the androgon deprived state (n = 3): weighted summed score (P < 0.05) [3] | viability screen: viability (% [ATP] normalized to R1881-treated control) (LNCaP cells) [%] | other results
CC(C)NCCCn1c(Sc2cc3c(cc2I)OCO3)nc2c(N)ncnc21 [PU-H71, reference compound] | – | – | – | – | – | – | – | – | HSP90 interaction with cochaperone p23 (coimmunoprecipitation) [1]: had the same effect; competition with Cy3B-geldanamycin for binding to the ATP-binding pocket of HSP90α (HSP90α): competed with geldanamycin binding at low concentrations
CO[C@H]1/C=C\C=C(/C)C(=O)NC2=CC(=O)C(NCCN(C)C)=C(C[C@@H](C)C[C@H](OC)[C@H](O)[C@@H](C)/C=C(\C)[C@@H]1OC(N)=O)C2=O [17-DMAG, 17-dimethylaminoethylamino-17-demethoxy-geldanamycin, reference compound] | 0.766 | 0.73 | very strong similarity | – | – | – | – | – | celastrol rank (celastrol signature): 6; connectivity scores for the gedunin signature (gedunin signature): High connectivity scores; gedunin rank (gedunin signature): 5
CO[C@H]1C[C@H](O[C@@H]2/C(C)=C/C[C@@H]3C[C@@H](C[C@]4(CC[C@H](C)[C@@H](C5CCCCC5)O4)O3)OC(=O)[C@@H]3C=C(C)/C(=N/O)[C@H]4OC/C(=C\C=C\[C@@H]2C)[C@]43O)O[C@@H](C)[C@@H]1O [selamectin] | – | – | – | – | – | – | – | – | viability (in vitro): 81.1%
C[C@@H]1C[C@H]2O[C@@H]2/C=C\C=C\C(=O)Cc2c(Cl)c(O)cc(O)c2C(=O)O1 [monorden, reference compound] | 0.409 | 0.511 | very strong similarity | – | – | – | – | – | –
CC(=O)O[C@@H]1C[C@H]2C(C)(C)C(=O)C=C[C@]2(C)[C@H]2CC[C@]3(C)C(=CC(=O)O[C@H]3c3ccoc3)[C@@]21C [deoxygedunin] | – | – | – | 2 | 2 | 3 | 3 | 63.3 | –
CCCCCCCCCCCCCCCC[N+](C)(C)C.[Br-] [cetrimonium bromide, reference compound] | – | – | – | 3 | 3 | 0 | 0 | 109.7 | –
C[C@@H]1[C@H](O)[C@@H](C)/C=C/C=C/CC/C=C/C=C/C=C/C=C/C(O[C@H]2O[C@H](C)[C@@H](O)[C@H](N)[C@@H]2O)CC2O[C@](O)(CC(O)C(O)CCC(O)CC(O)CC(O)CC(=O)O[C@H]1C)CC(O)C2C(=O)O (stereo partly shown) [nystatin, reference compound] | – | – | – | 2 | 2 | 0 | 0 | 74.5 | –
C=CCNC1=C2C[C@@H](C)C[C@H](OC)[C@H](O)[C@@H](C)/C=C(\C)[C@H](OC(N)=O)[C@@H](OC)/C=C\C=C(/C)C(=O)NC(=CC1=O)C2=O [17-AAG, 17-allylamino-geldanamycin, reference compound] | 0.736 | 0.702 | very strong similarity | – | – | – | – | – | celastrol rank (celastrol signature): 8; connectivity scores for the gedunin signature (gedunin signature): High connectivity scores; gedunin rank (gedunin signature): 6; effect on the GE-HTS androgen signaling signature outside the screen ([3]; with and without 12 hours androgen pretreatment): suppressed the androgen signaling signature
